# Patent US9976170B2, “Method for evaluating bacterial cell wall integrity” (UNIVERSIDAD AUTONOMA DE MADRID, priority 2011, dated 2018)
# Read-outs that look alike come from different tables or passages of the source.
# How the values were obtained:
# Type in all cases: cell-based
# [1] = test system: Enterococcus faecium, ampicillin- and benzylpenicillin-resistant strain; test: technique for evaluating cell wall integrity (lysis solution, nucleoid release, fluorescence microscopy); settings: 320 μg/mL, 60 minutes
# Description: (§1) Different bacterial strains grown on a dish with Mueller-Hinton medium for 24 hours were subsequently exposed to a β-lactam antibiotic for 60 minutes in Mueller-Hinton liquid medium at 37° C., under stirring, and were finally processed by means of the technique for evaluating cell wall integrity according to the present invention.
# (§2) The doses of antibiotic applied were 0, the MIC determined in the Microbiology Laboratory by means of the microdilution and/or E-test technique, and those of the cutoff points of sensitivity and resistance indicated by the Clinical and Laboratory Standards Institute (CLSI) for each strain. A dose 10 times higher than the MIC was also used.
# [2] = test system: Enterococcus faecalis, ampicillin-sensitive and benzylpenicillin-resistant strain; test: as above; settings: 60 minutes
# Description: as §1, §2
# [3] = test system: Enterococcus faecium, ampicillin- and benzylpenicillin-resistant strain; test: MIC by microdilution and/or E-test
# From the text: (§3) The strains and the antibiotics used were: • Gram+ • Enterococcus faecalis.
# as §2
# [4] = test system: Enterococcus faecalis, ampicillin-sensitive and benzylpenicillin-resistant strain; test: MIC by microdilution and/or E-test
# From the text: as §3, §2
# [5] = test system: Escherichia coli, ceftazidime-sensitive strain with intermediate sensitivity to ampicillin; test: technique for evaluating cell wall integrity (lysis solution, nucleoid release, fluorescence microscopy); settings: 60 minutes
# Description: as §1, §2
# [6] = test system: Escherichia coli, ampicillin- and ceftazidime-resistant strain; test: as above; settings: 60 minutes
# Description: as §1, §2
# [7] = test system: Acinetobacter baumannii, imipenem- and ceftazidime-resistant strain; test: as above; settings: 60 minutes
# Description: as §1, §2
# [8] = test system: Acinetobacter baumannii, imipenem-sensitive strain with intermediate sensitivity to ceftazidime; test: as above; settings: 60 minutes
# Description: as §1, §2
# [9] = test system: Escherichia coli, ceftazidime-sensitive strain with intermediate sensitivity to ampicillin; test: MIC by microdilution and/or E-test
# From the text: as §3, §2
# [10] = test system: Escherichia coli, ampicillin- and ceftazidime-resistant strain; test: MIC by microdilution and/or E-test
# From the text: as §3, §2
# [11] = test system: Acinetobacter baumannii, imipenem- and ceftazidime-resistant strain; test: MIC by microdilution and/or E-test
# From the text: as §3, §2
# [12] = test system: Acinetobacter baumannii, imipenem-sensitive strain with intermediate sensitivity to ceftazidime; test: MIC by microdilution and/or E-test
# From the text: as §3, §2
# [13] = test system: strain of Escherichia coli with intermediate sensitivity; test: technique for evaluating cell wall integrity, Examples 1 and 3; settings: for incubation time at which a clear effect started to show: only after high dose (32/16)
# From the text: (§4) Three different strains of Escherichia coli were exposed to the β-lactam antibiotic, amoxicilin, together with the β-lactamase inhibitor, clavulanic acid, and processed by means of the technique for evaluating cell wall integrity of the present invention. […] The doses of antibiotic were chosen according to the cutoff points indicated by the Clinical and Laboratory Standards Institute (CLSI). […] According to the disc diffusion data, one of the strains is a sensitive strain, another strain is a strain with intermediate sensitivity and the remaining strain is a resistant strain.
# (§5) A sensitive strain, a strain with intermediate sensitivity and another resistant strain of E. coli were exposed to amoxicilin together with clavulanic acid in Mueller-Hinton liquid medium and processed by means of the technique for evaluating cell wall integrity of the present invention. […] The incubation times with the antibiotic were 5, 10, 20, 30, 40, 60 and 75 minutes.
# [14] = test system: sensitive strain of Escherichia coli; test: as above; settings: for lysis of the bacteria, showing the nucleoids: exponential liquid culture
# From the text: as §4, §5
# [15] = test system: resistant strain of Escherichia coli; test: as above
# From the text: as §4, §5
# [16] = test system: 11 different strains of E. coli isolated in a Microbiology Service; test: technique for evaluating cell wall integrity on hospital isolates; settings: of 11 strains, 1 hour
# Description: Following the results of the preceding experiment (Example 1), 11 different strains of E. coli isolated in a Microbiology Service were studied. After growing on a dish with Mueller-Hinton medium for 24 hours, they were exposed to amoxicilin together with clavulanic acid in Mueller-Hinton liquid medium for 1 hour, after which they were processed by means of the technique for evaluating cell wall integrity according to the present invention.
# [17] = test system: amoxicilin/clavulanic acid-sensitive E. coli strain
# Description: The liquid with the cells is included in an agarose microgel which is dehydrated in alcohols and/or air dried or dried in an oven and stained with fluorochrome. It is the same process described in detail above, but without incubation with lysis solution.
# [18] = test system: sensitive strain of E. coli; test: background of extracellular DNA fragments, processed without the step of lysis (FIG. 8); settings: 40 minutes, after 24 hours on a dish
# Description: The strains were processed without the step of lysis by exposure to the lysis solution.
# The liquid with the cells is included in an agarose microgel which is dehydrated in alcohols and/or air dried or dried in an oven and stained with fluorochrome. It is the same process described in detail above, but without incubation with lysis solution. The background can be evaluated rapidly after 15-20 minutes that it takes to perform the technique. The preparations are permanent.
# [19] = dose 32/16, 40 minutes, exponential liquid culture
# [20] = low dose (8/4), bacteria from 24-hour dish culture
# [21] = 32/16, 15 minutes of incubation
compound,measurement,setting,value
CC1(C)S[C@@H]2[C@H](NC(=O)Cc3ccccc3)C(=O)N2[C@H]1C(=O)O [benzylpenicillin],background of extracellular DNA fragments,[1],no background
same,heavily lysed cells,[1],5%
same,background of extracellular DNA fragments,[2]; 16 μg/mL,some background
same,cells not lysed,[2]; 16 μg/mL,81%
same,lysed cells with a large halo,[2]; 16 μg/mL,4.5%
same,cells lysed with nucleoid with fragmented DNA,[2]; 32 μg/mL,4%
same,cells not lysed,[2]; 32 μg/mL,65%
same,cells with a large halo,[2]; 32 μg/mL,4%
same,cells with a small halo,[2]; 320 μg/mL,25%
same,non-lysed cells,[2]; 320 μg/mL,72.3%
same,empty faint capsules,"[2]; 16, 32 and 320 μg/mL",0.5-1.5%
same,MIC,[3],> 32 µg/mL
same,MIC,[4],> 32 µg/mL
CC(C)(O/N=C(\C(=O)N[C@@H]1C(=O)N2C(C(=O)[O-])=C(C[n+]3ccccc3)CS[C@H]12)c1csc(N)n1)C(=O)O [ceftazidime],background of extracellular DNA fragments,[5]; 1 μg/mL (MIC),some background
same,filamentous cells,[5]; 1 μg/mL (MIC),99%
same,heavily lysed cells,[5]; 1 μg/mL (MIC),97%
same,background of extracellular DNA fragments,[5]; 8 μg/mL,more background
same,background of extracellular DNA fragments,[5]; 10 μg/mL,extensive background
same,empty capsules,[5]; 10 μg/mL,10.5%
same,lysed cells with nucleoid with fragmented DNA,[5]; 10 μg/mL,11%
same,well lysed cells,[5]; 10 μg/mL,76.5%
same,empty capsules,[5]; 20 and 32 μg/mL,25.3%
same,lysed cells with nucleoid with fragmented DNA,[5]; 20 and 32 μg/mL,20%
same,non-lysed cells,[5]; 20 and 32 μg/mL,2%
same,well lysed cells,[5]; 20 and 32 μg/mL,52.7%
same,filamentous cells,[6]; 8 μg/mL,13%
same,well lysed cells,[6]; 8 μg/mL,1%
same,background of extracellular DNA fragments,[6]; 20 μg/mL,without background
same,filamentous cells,[6]; 20 μg/mL,99%
same,non-lysed cells,[6]; 20 μg/mL,94%
same,well lysed cells,[6]; 20 μg/mL,5%
same,background of extracellular DNA fragments,[6]; 32 μg/mL (MIC),subtle background
same,empty capsules,[6]; 32 μg/mL (MIC),1%
same,filamentous cells,[6]; 32 μg/mL (MIC),98%
same,lysed cells with nucleoid with fragmented DNA,[6]; 32 μg/mL (MIC),3%
same,non-lysed cells,[6]; 32 μg/mL (MIC),92%
same,well lysed cells,[6]; 32 μg/mL (MIC),4%
same,background of extracellular DNA fragments,[6]; 320 μg/mL,subtle background
same,cells lysed with nucleoid with fragmented DNA,[6]; 320 μg/mL,0.5%
same,filamentous cells,[6]; 320 μg/mL,99%
same,heavily lysed cells,[6]; 320 μg/mL,3.5%
same,moderately lysed cells,[6]; 320 μg/mL,95%
same,non-lysed cells,[6]; 320 μg/mL,1%
same,background of extracellular DNA fragments,[7]; 2.560 μg/mL,same background persists
same,cells lysed with nucleoids with fragmented DNA,[7]; 2.560 μg/mL,25%
same,cells not lysed,[7]; 2.560 μg/mL,5%
same,cells with a large halo,[7]; 2.560 μg/mL,63.5%
same,cells with a small halo,[7]; 2.560 μg/mL,6.5%
same,very elongated and filamentous cells,[7]; 8 μg/mL,22%
same,background of extracellular DNA fragments,[7]; 256 μg/mL,subtle background
same,cells not lysed,[7]; 256 μg/mL,4.7%
same,cells with a small halo,[7]; 256 μg/mL,63%
same,heavily lysed cells,[7]; 256 μg/mL,32.3%
same,background of extracellular DNA fragments,[7]; 20 and 32 μg/mL,without background
same,cells with a large halo,[7]; 20 and 32 μg/mL,1.5%
same,cells with a small halo,[7]; 20 and 32 μg/mL,84.5%
same,filamentous cells,"[7]; subsequent doses (20, 32, 256, 2.560 μg/mL)",90%
same,background of extracellular DNA fragments,[8]; 8 μg/mL,without background
same,filamentous cells,[8]; 8 μg/mL,82%
same,lysed cells with a small halo,[8]; 8 μg/mL,40%
same,lysed cells with nucleoid with fragmented DNA,[8]; 8 μg/mL,1%
same,filamentous cells,[8]; 12 μg/mL (MIC) and 20 μg/mL,95%
same,background of extracellular DNA fragments,[8]; 12 μg/mL (MIC),subtle background
same,lysed cells with a large halo,[8]; 12 μg/mL (MIC),1.5%
same,lysed cells with a small halo,[8]; 12 μg/mL (MIC),94.5%
same,non-lysed cells,[8]; 12 μg/mL (MIC),4%
same,lysed cells with a large halo,[8]; 20 μg/mL,3%
same,lysed cells with a small halo,[8]; 20 μg/mL,91.5%
same,non-lysed cells,[8]; 20 μg/mL,5.5%
same,background of extracellular DNA fragments,[8]; 32 μg/mL,more background
same,elongated cells,[8]; 32 μg/mL,90%
same,lysed cells with a large halo,[8]; 32 μg/mL,6%
same,lysed cells with a small halo,[8]; 32 μg/mL,88%
same,non-lysed cells,[8]; 32 μg/mL,6%
same,background of extracellular DNA fragments,[8]; 120 μg/mL,extensive background
same,filamentous cells,[8]; 120 μg/mL,91%
same,lysed cells with a large halo,[8]; 120 μg/mL,23%
same,lysed cells with a small halo,[8]; 120 μg/mL,67%
same,lysed cells with nucleoid with fragmented DNA,[8]; 120 μg/mL,36%
same,non-lysed cells,[8]; 120 μg/mL,7%
same,MIC,[9],1 µg/mL
same,MIC,[10],32 µg/mL
same,MIC,[11],> 32 µg/mL
same,MIC,[12],12 µg/mL
C[C@@H](O)[C@H]1C(=O)N2C(C(=O)O)=C(SCCN=CN)C[C@H]12 [imipenem],cells with a large halo,[7]; 16 μg/mL,1%
same,cells with a small halo,[7]; 16 μg/mL,1%
same,lysed cells with nucleoid with fragmented DNA,[7]; 16 μg/mL,0.5%
same,cells not lysed,[7]; 320 μg/mL,92%
same,heavily lysed cells,[7]; 320 μg/mL,3.5%
same,lysed cells with a small halo,[7]; 320 μg/mL,2.5%
same,lysed cells with nucleoid with fragmented DNA,[7]; 320 μg/mL,2%
same,cells with a large halo,[8]; 4 μg/mL,13.5%
same,faint empty capsules,[8]; 4 μg/mL,12%
same,lysed cells with nucleoid with fragmented DNA,[8]; 4 μg/mL,66%
same,non-lysed cells,[8]; 4 μg/mL,8.5%
same,cells with a large halo,[8]; 8 μg/mL,6%
same,faint empty capsules,[8]; 8 μg/mL,19.5%
same,lysed cells with nucleoid with fragmented DNA,[8]; 8 μg/mL,69.5%
same,non-lysed cells,[8]; 8 μg/mL,5%
same,cells with a large halo,[8]; 16 μg/mL,5%
same,faint empty capsules,[8]; 16 μg/mL,15%
same,lysed cells with nucleoid with fragmented DNA,[8]; 16 μg/mL,73.5%
same,non-lysed cells,[8]; 16 μg/mL,6.5%
same,MIC,[11],> 32 µg/mL
same,MIC,[12],0.38 µg/mL
amoxicilin/clavulanic acid,"lysis of the bacteria, showing the nucleoids",[13]; [19],lysed
same,incubation time at which a clear effect started to show,[13]; bacteria from 24-hour dish culture,60 min
same,incubation time at which a clear effect started to show,[13]; liquid culture in exponential growth phase,30 to 40 min
same,"lysis of the bacteria, showing the nucleoids","[14]; dose 8/4 (8 μg/mL amoxicilin, 4 μg/mL clavulanic acid), 40 minutes",lysed
same,"lysis of the bacteria, showing the nucleoids","[14]; dose 32/16, 40 minutes",lysed
same,"incubation time after which an effect (background, subtle cell lysis) started to be seen","[14]; high dose (32/16), bacteria from 24-hour dish culture",20 min
same,incubation time after which an effect started to be observed,"[14]; low (8/4) and high (32/16) dose, liquid culture in exponential growth phase",10 min
same,incubation time after which the subtle effect was observed,[14]; [20],40 min
same,incubation time at which the effect became maximum (lysis of virtually all cells),[14]; [20],60 min
same,effect on the wall,"[15]; 8/4 and 32/16, liquid culture in exponential growth phase",did not show any effect at all
same,effect on the wall,"[15]; 8/4 and 32/16, up to 75 minutes, bacteria from 24-hour dish culture",did not show any effect at all
same,"lysis of the bacteria, showing the nucleoids",[15]; [19],not lysed
same,"strains with complete wall lysis and intense background even at low dose (8/4), categorized as sensitive",[16],Three
same,"strains with complete wall lysis and intense background only at high dose (32/16), intermediate sensitivity",[16],5
same,"strains with non-lysed and moderately lysed cells, very faint or no background at high dose, categorized as resistant",[16],Two
same,"background of extracellular DNA fragments, without lysis",[17]; [21],very clear background
same,"cells per mL, measured by Neubauer chamber",[17]; [21],42.5 million of cells per mL
same,OD 600,"[17]; 32/16, 15 minutes of incubation, starting OD 600 0.07",0.071
same,OD 600,"[17]; 32/16, 2 hours of incubation",0.033
same,cells per mL,"[17]; 32/16, 2 hours of incubation",14.5 million of cells per mL
same,OD 600,"[17]; 32/16, 3 hours",0.037
same,OD 600,"[17]; 32/16, 4 hours",0.033
same,OD 600,"[17]; 32/16, 6 hours",0.035
same,cells per mL,"[17]; 32/16, 6 hours",13.5 million of cells per mL
same,"background of extracellular DNA fragments, without lysis","[17]; 32/16, after 3 and 4 hours",poor
same,"background of extracellular DNA fragments, without lysis","[17]; 32/16, after 6 hours",no longer observed
same,cells per mL,"[17]; 32/16, at both 3 and 4 hours",14 million of cells per mL
same,"background of extracellular DNA fragments, without lysis","[17]; 32/16, up to 2 hours of incubation",remains intense
same,"background of extracellular DNA fragments, without lysis",[18]; high dose (32/16),increases significantly
same,"background of extracellular DNA fragments, without lysis",[18]; low dose (8/4),evident
